Several values for one entry are separate records, joined by “and”; a condition that tells them apart may be missing. Equal values may be shown once.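 Each compound was tested at five concentrations against cells in 96-well plates for 48 hours. GI50 marks 50% less growth.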 Activity calls are given as the source filed them. Rule as the data show it: active = GI50 up to about 1.1 µM and inactive = higher.
Tests used:
Experiment in all cases: NCI tumour cell line growth inhibition, 48 h
[1] = tested on: OVCAR-4
[2] = tested on: SN12C
[3] = tested on: SF-295
[4] = tested on: SK-MEL-5
[5] = tested on: RPMI-8226
[6] = tested on: HCT-116
[7] = tested on: SF-539
[8] = tested on: HT-29
[9] = tested on: A549
[10] = tested on: KM12
[11] = tested on: NCI/ADR-RES
[12] = tested on: HCC 2998
[13] = tested on: SK-MEL-28
[14] = tested on: SK-MEL-2
[15] = tested on: MDA-MB-435
[16] = tested on: OVCAR-3
[17] = tested on: LOX IMVI
[18] = tested on: HL-60
[19] = tested on: ACHN
[20] = tested on: Malme-3M

Measured: GI50

Nc1nc(N)c2nn(-c3ccc(C(=O)O)cc3)nc2n1
inactive: [1] > 100 µM | [2] > 100 µM | [3] > 100 µM | [4] > 100 µM | [5] > 100 µM | [6] > 100 µM | [7] > 100 µM | [8] > 100 µM | [9] > 100 µM | [10] > 100 µM | [11] > 100 µM | [12] > 100 µM | [13] > 100 µM | [14] > 100 µM | [15] > 100 µM | [16] > 100 µM | [17] > 100 µM | [18] 72.1 µM | [19] > 100 µM

CNC(=O)CNC(=O)C(Cc1ccc(NC(=O)CCCCC(C)=O)cc1)NC(=O)C(CCC(=O)OCc1ccccc1)NC(=O)OC(C)(C)C (centres undefined)
inactive: [1] > 100 µM | [2] > 100 µM | [3] > 100 µM | [4] > 100 µM | [5] > 100 µM | [6] > 100 µM | [7] > 100 µM | [8] > 100 µM | [9] > 100 µM | [10] > 100 µM | [11] > 100 µM | [12] > 100 µM | [13] > 100 µM | [15] > 100 µM | [16] > 100 µM | [17] > 100 µM | [20] > 100 µM | [18] > 100 µM | [19] > 100 µM

COc1cc(/C=N/NC(=O)c2c(Cl)c(Cl)c(Cl)c(Cl)c2-c2nc3ccccc3[nH]2)ccc1O
inactive: [2] 24.2 µM | [3] 24.1 µM | [4] 14.9 µM | [6] 16.7 µM | [7] 26.7 µM | [8] 22.2 µM | [9] 29.9 µM | [10] 24.2 µM | [11] > 100 µM | [12] 17.2 µM | [13] 33.6 µM | [14] 20.3 µM | [15] 29 µM | [16] 27.3 µM | [17] 22.4 µM | [20] 21.7 µM | [18] 21.2 µM | [19] 21.4 µM

CC(=O)/C(=C/NC(=S)c1ccncc1)C(=O)Nc1ccccc1C
inactive: [1] > 100 µM | [2] > 100 µM | [3] > 100 µM | [4] > 100 µM | [6] > 100 µM | [7] > 100 µM | [8] > 100 µM | [9] > 100 µM | [10] > 100 µM | [11] > 100 µM | [12] > 100 µM | [13] > 100 µM | [14] > 100 µM | [15] > 100 µM | [16] > 100 µM | [17] > 100 µM | [18] > 100 µM | [19] > 100 µM

C=C1C(=O)OC2/C=C(\CO)C(OC(C)=O)CC(O)/C(C)=C/C(OC(=O)C(C)CC)C12 (centres undefined)
inactive: [1] 33.5 µM and 17.3 µM | [2] 18.2 µM and 20.2 µM | [3] > 100 µM | [4] 18.8 µM and 17 µM | [6] 14 µM and 19.7 µM | [7] 24.8 µM and 19.2 µM | [8] 16.3 µM and 21 µM | [9] 45.8 µM and 37.3 µM | [11] > 100 µM | [12] 22.4 µM and 15.6 µM | [13] 18.3 µM and 26.9 µM | [14] 17.5 µM and 17.1 µM | [15] 20.3 µM | [16] 18.5 µM and 16.5 µM | [17] 18.8 µM and 13.7 µM | [20] 13.5 µM and 15.3 µM | [18] 5.86 µM and 4.97 µM | [19] 26.2 µM and 23.7 µM

CC1=NN(c2nc(N)nc(/C(C#N)=C/c3ccccc3O)n2)C(C)(C)C1
inactive: [1] 19 µM | [2] 25.5 µM | [3] 15.6 µM | [4] 15.5 µM | [5] 17 µM | [6] 18.3 µM | [7] 16.9 µM | [8] 19.8 µM | [9] 15.9 µM | [10] 15.8 µM | [11] 21.4 µM | [12] 19.5 µM | [13] 16.7 µM | [14] 22.2 µM | [15] 17.3 µM | [16] 14.7 µM | [20] 18.7 µM | [18] 30.3 µM | [19] 18.5 µM

O=c1c2c3c(sc2nc2n1N=C(c1ccc(Br)cc1)CS2)CCCC3
inactive: [1] > 100 µM | [2] > 100 µM | [3] > 100 µM | [6] > 100 µM | [7] > 100 µM | [8] > 100 µM | [9] > 100 µM | [10] > 100 µM | [11] > 100 µM | [12] > 100 µM | [13] > 100 µM | [15] > 100 µM | [16] > 100 µM | [17] > 100 µM | [20] > 100 µM | [18] > 100 µM | [19] > 100 µM

S=C(NCCc1ccccn1)c1nc[nH]c1C(=S)NCCc1ccccn1
inactive: [1] 33.8 µM | [2] 68.5 µM | [3] 25.1 µM | [4] 31.7 µM | [5] 26 µM | [6] 34 µM | [8] > 100 µM | [9] 32.3 µM | [10] 24 µM | [11] 20.5 µM | [12] 76.9 µM | [13] 52.4 µM | [14] 47.8 µM | [15] 30.1 µM | [16] 37.9 µM | [17] 20.7 µM | [20] 35.4 µM | [19] 36.3 µM

O=C1CCSC(=S)N1c1ccc(Br)c(Cl)c1
inactive: [1] 22.2 µM | [2] 41.2 µM | [3] 32.7 µM | [4] 18.4 µM | [5] 33.7 µM | [6] 36.5 µM | [7] 33 µM | [8] 16.1 µM | [9] 35.3 µM | [10] 31.2 µM | [11] 42.9 µM | [13] 17.7 µM | [14] 28.4 µM | [15] 26.8 µM | [16] 37.6 µM | [17] 22 µM | [20] 22.9 µM | [18] 26 µM | [19] 21.6 µM

COC(=O)C12C3C4(C(=O)OC)C1C1(C(=O)OC)C2C3(C(=O)OC)C41C(=O)N(C(C)C)C(C)C (centres undefined)
inactive: [1] > 100 µM | [2] > 100 µM | [3] > 100 µM | [4] > 100 µM | [6] > 100 µM | [7] > 100 µM | [8] > 100 µM | [9] > 100 µM | [10] > 100 µM | [11] > 100 µM | [12] > 100 µM | [13] > 100 µM | [14] > 100 µM | [15] > 100 µM | [16] > 100 µM | [17] > 100 µM | [18] > 100 µM | [19] > 100 µM

CN(C)c1nc2n(CCO)c(-c3ccccc3)c(-c3ccccc3)nc-2c(=O)n1
inactive: [1] > 100 µM | [2] > 100 µM | [3] > 100 µM | [4] > 100 µM | [5] > 100 µM | [6] > 100 µM | [7] > 100 µM | [8] > 100 µM | [9] > 100 µM | [10] > 100 µM | [11] > 100 µM | [12] > 100 µM | [13] > 100 µM | [14] > 100 µM | [15] > 100 µM | [16] > 100 µM | [17] > 100 µM | [20] > 100 µM | [19] > 100 µM

CC(C)(C)OC(=O)NCC(CNC(=O)OC(C)(C)C)C(N)=O
inactive: [1] > 100 µM | [2] > 100 µM | [3] > 100 µM | [4] > 100 µM | [5] > 100 µM | [6] > 100 µM | [7] > 100 µM | [8] > 100 µM | [9] > 100 µM | [10] > 100 µM | [11] > 100 µM | [12] > 100 µM | [13] > 100 µM | [15] > 100 µM | [16] > 100 µM | [17] > 100 µM | [20] > 100 µM | [18] > 100 µM | [19] > 100 µM

COc1cc(OC)c(-c2ccc(OCc3ccccc3)c3c(OC)cc(C)cc23)c2c1C(C)=N[C@H](C)C2
inactive: [1] 2.14 µM | [2] 2.04 µM | [3] 2.01 µM | [4] 2.27 µM | [5] 1.44 µM | [6] 2.23 µM | [7] 2.38 µM | [8] 1.97 µM | [9] 2.3 µM | [10] 2.09 µM | [11] 2.12 µM | [13] 2.36 µM | [14] 2.25 µM | [15] 2.3 µM | [16] 2.25 µM | [17] 1.88 µM | [20] 1.8 µM | [18] 2.2 µM | [19] 2.25 µM

CC(C)=CCOc1cc(NC(=S)c2ccoc2C)ccc1Cl [UC 781]
inactive: [1] > 100 µM | [2] 34.7 µM | [3] > 100 µM | [4] > 100 µM | [5] > 100 µM | [6] > 100 µM | [7] > 100 µM | [8] > 100 µM | [9] > 100 µM | [10] > 100 µM | [11] > 100 µM | [12] > 100 µM | [13] > 100 µM | [14] > 100 µM | [15] > 100 µM | [16] > 100 µM | [17] 14.1 µM | [20] > 100 µM | [19] > 100 µM
